# According to US8889425B2 (Bayerische Julius-Maximilians-Universität Würzburg, priority 2003, dated 2014):
# Assays:
# [1] = tested on: endogenous beta2-adrenergic receptors (HEK293 cells; murine HCN2 (A467-K638) sensor); details: 10 μM isoproterenol
# Procedure: FIG. 12. […] B. FRET measurements in living HEK293 cells stimulated with 10 μM isoproterenol via endogenous beta2-adrenergic receptors. Cells were transfected with HCN2-based (A467-K638) sensor.
# Samples were excited with a light from Polychrom IV (Till Photonics). […] The imaging data were analyzed by MetaMorph 5.0r6 software (Universal Imaging Corp.) and corrected for spillover of CFP into 535 nm channel, as well as for acceptor photobleaching to give a corrected ratio F535 nm/F480 nm.
# [2] = tested on: adenosine A2B receptor (CHO cells; single binding domain EPAC2 sensors); test: single cell FRET, CHO cells expressing adenosine A2B receptor, EPAC2 sensors; format: cell-based; details: 24 hours after transfection, single living cells
# Procedure: Transfected cells were analyzed 24 h later.
# adenylyl cyclase = test: FRET signal with direct activators of adenylyl cyclase in cells; format: cell-based
compound,measurement,setting,value
CC(C)NCC(O)c1ccc(O)c(O)c1 (stereo not drawn) [isoproterenol],cAMP-dependent FRET change upon isoproterenol,[1],decrease in FRET
Nc1ncnc2c1ncn2[C@@H]1O[C@H](CO)[C@@H](O)[C@H]1O [adenosine],FRET between YFP and CFP upon adenosine,[2],decrease of FRET
C=C[C@@]1(C)CC(=O)[C@]2(O)[C@@]3(C)[C@@H](O)CCC(C)(C)[C@@H]3[C@H](O)[C@H](OC(C)=O)[C@@]2(C)O1 [forskolin],FRET-signal,adenylyl cyclase,detectable FRET-signal
